Tested on: HeLa cells
Experiment: Apoptosis by PI staining and flow cytometry (subG1 population) in HeLa cells
Format: cell-based
Description: Cell culture, transfection and treatment—HeLa cells were cultured in Dulbecco's modified Eagle's medium (DMEM) containing 10% fetal bovine serum, 2 mM L-glutamine and penicillin (100 units/ml)-streptomycin (100 μg/ml) at 37° C. in a humidified 5% CO2 atmosphere. HeLa cells at 90% confluence were transfected with different mammalian expression vectors using Lipofectamin 2000 according to the manufacturer's protocol (Invitrogen Inc., Carlsbad, Calif.). At 24 h or 48 h after transfection, cells were treated with 1:100 dilution of AD198 that was dissolved in dimethyl sulfoxide (DMSO). For down-regulation of PLS3, HeLa cells at 50% confluence were transfected with siRNA against PLS3 or a scrambled control. At 48 h, cells were treated with AD198 for 16 h and harvested for flow cytometry. The whole cell lysate was extracted for analysis with Western blotting.
Analysis of apoptosis and determination of the transmembrane potential in mitochondria—Cell death was quantified by propidium iodide (PI) staining, followed by flow cytometry (Becton-Dickinson). HeLa cells were fixed in 0.5 ml cold 70% ethanol at −20° C. overnight. Cell pellet were resuspended in 300 μl of PBS containing 0.025 mg/ml PI, 0.05% Triton X-100, 0.1 mg/ml RNase A and incubated at room temperature for 30 min. The DNA content was evaluated by FACScan. For mitochondrial potential analysis, HeLa cells were incubated with MitoTracker Green at 37° C. for 20 min. The cells were collected and washed with PBS and analyzed by FACScan.
Cell culture, transfection, selection and treatment—HeLa cells were cultured in Dulbecco's modified Eagle's medium (DMEM) with 10% fetal bovine serum, 2 mM L-glutamine, 100 units/ml penicillin and 100 μg/ml streptomycin at 37° C. HeLa cells at 90% confluence were transfected with different mammalian expression vectors or siRNA using Lipofectamin 2000 according to the manufacturer's protocol (Invitrogen Inc., Carlsbad, Calif.). At 48 h after transfection, cells were incubated with 5 μM AD198 or dimethyl sulfoxide (DMSO) for 4 h or 16 h. After transfection, cells were selected with 1 mg/ml G418 for 2 wk. After corresponding mock-transfected cells were killed by G418, the concentration of G418 was decreased to 0.5 mg/ml and maintained for another 2 wk. The whole cell lysates or subcellular fractions were extracted for Western blotting analysis (Liu et al. (2003)).
Analysis of apoptosis—HeLa cells were harvested and fixed in 70% ethanol at −20° C. overnight. Cells were then washed with PBS and stained with 0.025 mg/ml propidium iodide (PI), 0.05% Triton X-100, 0.1 mg/ml RNase A for 30 min at room temperature. The DNA content was analyzed by FACScan (Becton-Dickinson), and the subG0/G1 population was used to represent apoptosis.

Structure (SMILES): CCCCC(=O)OCC(=O)[C@]1(O)Cc2c(O)c3c(c(O)c2[C@@H](O[C@H]2C[C@H](NCc4ccccc4)[C@H](O)[C@H](C)O2)C1)C(=O)c1c(OC)cccc1C3=O [AD198, N-benzyladriamycin-14-valerate]
- AD198-induced apoptosis (HeLa cells expressing PLS3(T21A), 5 μM AD198, 16 h (FIG. 9)): same degree of apoptosis as the control cells
- percentage of AD198-induced apoptosis (HeLa cells expressing wild-type PLS3, 5 μM AD198, 16 h (FIG. 9)): 31%
- apoptosis after AD198 treatment (HeLa cells expressing wild-type PLS3, 5 μM AD198, 16 h (FIG. 11), DMSO 9%): 43%
- apoptosis after AD198 treatment (HeLa cells transfected with PLS3(T21D), 5 μM AD198, 16 h (FIG. 11), DMSO 17%): 27%
- AD198-induced apoptosis when PKC-δ down regulated by siRNA (HeLa cells, AD198 1, 5 and 10 μM, 16 h): less apoptosis was detected
- sensitivity to AD198-induced apoptosis of cells with overexpression of PLS3 (HeLa cells, three concentrations of AD198, 16 h, versus without PLS3 overexpression): more sensitive
- AD198-induced apoptosis in cells transfected with siRNA against PLS3 (HeLa cells, versus scrambled siRNA control, 16 h): suppressed
- apoptosis after AD198 treatment (HeLa-control cells, 5 μM AD198, 16 h (FIG. 11), DMSO 6%): 22%
- percentage of AD198-induced apoptosis (control HeLa cells, 5 μM AD198, 16 h (FIG. 9)): 7%
